Columns and labels:
[1] = tested on: H. pylori strain CCUG 17874; assay: Chromatogram binding assay of 35S-labeled H. pylori to gangliosides on thin-layer plates; parameters: species or system Helicobacter pylori; conditions: for Amount at which binding was saturated: dilutions of gangliosides on thin-layer plates; for Binding to ganglioside (in words): strain CCUG 17874, thin-layer plates, non-binding = no binding at 4 μg
[2] = tested on: H. pylori strain CCGU 17874; assay: Overlay of TLC plates with radiolabeled bacteria (S-3-PG derivatives, glycolipids, neoglycolipids); assay type: binding, Helicobacter pylori; conditions: for Binding of H. pylori on TLC plates (in words): overlay with radiolabeled bacteria
H. pylori strain J99 = assay: Chromatogram binding assay of 35S-labeled H. pylori to gangliosides on thin-layer plates; parameters: species or system Helicobacter pylori
H. pylori strain 032 = assay: Overlay of TLC plates with radiolabeled bacteria (PGCs); assay type: binding, Helicobacter pylori; conditions: 032 strain from broth

Substance	Binding to ganglioside (in words) [1]	Binding to ganglioside (in words) (H. pylori strain J99)	also measured
NeuAcα3Galβ4(Fucα3)GlcNAcβ3Galβ4(Fucα3)GlcNAcβ3Galβ4Glcβ1Cer [No. 13]	recognized		Amount at which binding was saturated [1]: approximately 100 pmole
NeuAcα3Galβ4Glcβ1Cer [No. 1]	inactive		
NeuAcα3Galβ4GlcNAcβ3Galβ4Glc-HDA (or -branched lipid)			Binding of H. pylori on TLC plates (in words) [2]: active
NeuAcα3Galβ4GlcNAcβ6(NeuAcα3Galβ4GlcNAcβ3)Galβ4GlcNAcβ3Galβ4Glcβ1Cer [No. 16]	recognized	recognized	
NeuAcα3Galβ3(Fucα4)GlcNAcβ3Galβ4Glcβ1Cer [No. 6]	did not recognize	occasional binding	
NeuAcα3Galβ4GlcNAcβ3Galβ4(Fucα3)GlcNAcβ3Galβ4Glcβ1Cer [No. 12]	recognized		
Galα3(Fucα2)Galβ4GlcNAcβ6(NeuAcα3Galβ4GlcNAcβ3)Galβ4GlcNAcβ3Galβ4Glcβ1Cer [No. 19]	recognized	recognized	Detection level ([1]; thin-layer plates): approximately 100 pmole
NeuAcα3Galβ4GlcNAcβ3Galβ4GlcNAcβ3Galβ4GlcNAcβ3Galβ4Glcβ1Cer [No. 10]	recognized		
NeuAcα3Galβ4GlcNAcβ3Galβ4GlcNAcβ3Galβ4Glcβ1Cer [No. 8]	recognized	recognized	Amount at which binding was saturated [1]: approximately 100 pmole; Relative binding affinity ([1]; strain CCUG 17874, serial dilutions 1-100 pmole on thin-layer plates, densitometry): comparable to the binding of cholera toxin B-subunits to the GM1 ganglioside; Binding of H. pylori on TLC plates (in words) [2]: stronger than binding to sialoneotetraosylceramide
NeuAcα3Galβ4GlcNAcβ3Galβ4Glcβ1Cer [No. 2]			Binding of H. pylori on TLC plates (in words) (H. pylori strain 032): do not bind; Sensitivity of detection ([2]; some H. pylori batches): 0.3-0.4 pmol/mm^2

— patent US20060122148A1, “High affinity receptors for helicobacter pylori and use thereof” (priority 2002, published 2006)
